{
  "source": "patent US6576641B2",
  "about": "“Fused heterocyclic compounds and their use in the treatment of neurodegenerative diseases” (Neurosearch A/S, priority 1999, dated 2003)",
  "key": {"[1]": {"tested_on": "differentiated PC12 cells", "test": "Survival of differentiated PC12 cells after NGF withdrawal, cell viability by CyQUANT", "assay_type": "cell-based", "conditions": "differentiated PC12 cells in serum-free medium, after 4 days; FIG. 1B", "description": "(§1) Survival of Differentiated PC12 Cells after NGF Withdrawal\n(§2) PC12 cells are considered models for […] neurons for the investigation of neuronal differentiation and apoptosis.\n(§3) PC12 cells were seeded in collagen coated 96 well plates at a cell density of 8000/cm^2 in DMEM with 7.5% FCS, 7.5% HS and 2 nM NGF and cultured for 6 days.\n(§4) The medium was then changed to DMEM without serum supplemented with the compound of the test compound in the concentrations indicated in FIG. 1. As a positive control, parallel wells receiving serum-free DMEM without addition of vehicle or 3 nM NGF were included.\nIn another assay cell viability after 4 days was evaluated by using the CyQUANT Cell Proliferation Kit from Molecular Probes. CyQUANT might give a better correlation with the actual cell number of the culture than MTS, which rather reflects the total metabolic activity of the culture, cf. FIG. 1B."}, "[2]": {"tested_on": "differentiated PC12 cells", "test": "Survival of differentiated PC12 cells after NGF withdrawal, cell viability by reduction of MTS", "assay_type": "cell-based", "description": "as §1, §2, §3, §4\nAfter 4 days of incubation, cell viability was evaluated by reduction of MTS using the CellTiter 96 AQueous Non-radioactive Cell Proliferation Assay (available from Promega).\nData are expressed as % of the response seen with 3 nM NGF, and corrected for residual MTS reduction activity in the parallel serum-free cultures, cf. FIG. 1A."}},
  "data": [
    {"molecule": "CCCCN1CCc2oc(-c3ccc([N+](=O)[O-])cc3)cc2C1.O=C(O)/C=C/C(=O)O", "note": "[Compound 1, 6-(4-Nitrophenyl)-furano[3,2-c]-N-butyl-1,2,3,4-tetrahydropyridine Fumaric Acid Salt]", "values": [
      {"measurement": "maximal rescue (cell survival, CyQUANT)", "setting": "[1]", "value": "approximately 50%"},
      {"measurement": "rescue of differentiated PC12 cells in serum-free medium", "setting": "[2]; at nanomolar concentrations, stated for both MTS and CyQUANT experiments", "value": "potent dose-dependent rescue"},
      {"measurement": "maximal protection (cell viability, MTS)", "setting": "[2]; differentiated PC12 cells in serum-free medium, 4 days of incubation, % of the response seen with 3 nM NGF, corrected for serum-free cultures, FIG. 1A", "value": "approximately 30%"},
      {"measurement": "concentration giving maximal protection", "setting": "[2]; differentiated PC12 cells in serum-free medium, tested 1 nM to 10 μM, stated for both MTS and CyQUANT experiments", "value": 100, "unit": "nM"}
    ]}
  ]
}
